These results are taken from paper PMC12355554, “Development of novel mitochondrial pyruvate carrier inhibitors for breast cancer treatment” (The Journal of Biological Chemistry, 2025).

One series in a line: physchem. To be noted: water.
Another series relates to 67NR. Description: MTT cell proliferation inhibition assay, 67NR. The format is cell-based, murine. To be noted: Mus musculus, 72 h, 3 days, average ± SEM. The protocol: (§1) Confluent cell cultures were treated with trypsin and resuspended at 5 × 10^4 cells/ml. To a 96-well plate, 100 μl of the 5 × 10^4 cells/ml solution were added and allowed to incubate at 37 °C, 5% CO2 for 24 h. Compounds were then added and allowed to incubate for 3 days. […] Following the 4-h incubation with 3-(4,5-dimethylthiazol-2-yl)-2,5-diphenyltetrazolium bromide, 100 μl of SDS (0.1 g/ml, 0.01 N HCl) was added, and 96-well plates were allowed to incubate for an additional 4 h. […] Treatment absorbances are taken as percentages of the average untreated absorbances and plotted against log(concentration) in GraphPad Prism 10 (GraphPad Software, Inc) to generate effective concentration values where 50% of the cells are not proliferating (EC50).

Series [1] has as its system MPC or MCT expression levels. In words: Western blotting of MPC and MCT expression. The format is cell-based. To be noted: Western blot. As for the experimental part:
After denaturation at 95 °C for 10 min in radioimmunoprecipitation buffer, protein concentration was determined and equilibrated using the bicinchoninic acid assay (ThermoScientific), and 20 μg of protein was separated by electrophoresis in 4 to 12% polyacrylamide gels. Proteins were electrophoretically transferred to polyvinylidene fluoride membranes for 90 min at 100 V and stained with Ponceau to verify transfer quality and equal protein loading. […] Santa Cruz, catalog no.: sc-365501, 1:1000 dilution; MCT4, Santa Cruz, catalog no.: sc-376140, 1:1000 dilution; MPC1, Cell Signaling, 1:1000 dilution, catalog no.: 14462; MPC2, Cell Signaling, 1:1000 dilution, catalog no.: 46141; […] TBST, 0.5% nonfat milk protein). Membranes were rinsed three times with TBST and incubated with the respective secondary goat antimouse IgG (1:10,000 dilution) or goat anti-rabbit IgG (1:10,000 dilution) horseradish peroxidase–conjugated antibodies (Cell Signaling). Membranes were again washed three times with TBST and exposed to SuperSignal 60 West luminol enhancer and stable peroxide solution (ThermoScientific) for 2 min. Chemiluminescent images were obtained using a LicorFC imager. Images shown are representative of two separate experiments obtained from independent biological samples.
On the technique in general: A western blot detects proteins with antibodies after separation by electrophoresis.

A further series relates to MDA-MB-231. Description: MTT cell proliferation inhibition assay, MDA-MB-231. To be noted: Homo sapiens, 72 h, 3 days. The series is classed as cell-based. The protocol:
as §1

The next series deals with 67NR tumor. In words: Tumor efficacy study in a 67NR syngraft. To be noted: 14-day treatment.

Source text for physchem: Starting with the carboxylic acid 24, various salt forms were generated to increase the water solubility.

Regarding `CN(Cc1ccc(C(F)(F)F)cc1)c1ccc2cc(C(=O)O)c(=O)oc2c1.NC(CO)(CO)CO` [C5, 1,3-dihydroxy-2-(hydroxymethyl)propan-2-aminium 7-(methyl(4-(trifluoromethyl)benzyl)amino)-2-oxo-2H-chromene-3-carboxylate], the concentration in solution in the series “physchem” (solubility) came to 10000 µg/mL. Moreover, the EC50 (as a rule, the concentration giving half of the maximal effect) was 48 ± 4.3 µM in the series on 67NR and over 1000 µM in the series on MDA-MB-231. Besides, in series [1], the “effect on MPC or MCT expression levels” value was “does not alter”. The mouse body weight entry with 67NR tumor is reported as “remained stable”.
